Test [1] in a line: rotating rod test (sedative/muscle relaxant properties). It is filed as in vivo, mice. Particulars: Mus musculus, iv, i.v., read-out: Rotating rod test, ED550. The protocol: The sedative/muscle relaxant properties of the compounds of formula I in accordance with the invention can be determined, for example, in the rotating rod test. Mice weighing 19-21 g are used for this test. They have free access to feed and drinking water up to 1 h before the beginning of the test. They are brought into the test laboratory at least 30 min. before the test. In the rotating rod test the animals are placed on a horizontally arranged, smooth metal rod having a diameter of 3 cm, which is rotated at 2 revolutions per min. Initially, the animals are given the opportunity of familiarizing themselves with the test situation for 30 sec. Subsequently, those animals which succeed in remaining on the rod for at least 1 min. are selected. These animals are then given the test preparations intravenously in different dosages. At various points in time it is then determined whether the animals are able to remain on the rod for a minimum period (minimum period: 10 sec.; from 5 min. after administration: 1 min.). That dosage at which 50% of the animals are capable of remaining on the rod (ED50) is determined.

Test [2] deals with central benzodiazepine receptors. The experiment in a line: inhibition of the binding of tritiated flumazenil to the specific benzodiazepine receptors in the cortex of rats. Particulars: read-out: Affinity to benzodiazepine receptors IC50. The protocol: The affinity of compounds of general formula I to the central benzodiazepine receptors has been established in vitro according to the methods described in Nature 294, 763-765 (1981) and J. Neurochemistry 37, 714-722 (1981). According to these methods, the inhibition of the binding of tritiated flumazenil to the specific benzodiazepine receptors in the cortex of rats by the respective test substances is determined. The IC50 ("50% inhibiting concentration") denotes that concentration of the respective test substance which brings about a 50 percent inhibition of the specific binding of tritiated flumazenil to the specific benzodiazepine receptors in the cortex of rats.

The mark [3] stands for this setting: 15 s, 15 sec after administration.
Setting [4] is: 0.5 min, 30 sec after administration.
Where [5] appears, read: 1 min, 60 sec after administration.
Where [6] appears, read: 2 min, 2 min after administration.
Where [7] appears, read: 5 min, 5 min after administration.
Setting [8] is: 0.25 h, 15 min after administration.
[9] abbreviates: 0.5 h, 30 min after administration.
Setting [10] is: 1 h, 60 min after administration.

Molecules are shown by their SMILES. Like-named read-outs stand apart in the source and are kept apart here.

Consider `CCCN(CCC)Cc1cnc(-c2ncn3c2[C@@H]2CCN2C(=O)c2c(Cl)cccc2-3)o1` [A, (S)-8-chloro-1-(5-dipropylaminomethyl-oxazol-2-yl)-12,12a-dihydro-9H,11H-azeto[2,1-c]imidazo[1,5-a][1,4]benzodiazepin-9-one], for which the ED50 in test [1] (setting [3]) was 0.3 mg/kg; in test [1] (setting [4]) it was 0.4 mg/kg; in test [1] (setting [5]) it was 0.6 mg/kg; in test [1] (setting [6]), 1.1 mg/kg; in test [1] (setting [7]), 1.8 mg/kg; in test [1] (setting [8]), above 10 mg/kg. In addition, the ED50 in test [1] (setting [9]) and in test [1] (setting [10]) was above 10 mg/kg throughout. The IC50 – broadly, the concentration that gives 50% inhibition – in test [2] stood at 32 nM.

Consider `CCCN(CCC)Cc1cnc(-c2ncn3c2CN(C)C(=O)c2cc(F)ccc2-3)o1` [B, 3-(5-dipropylaminomethyl-oxazol-2-yl)-8-fluoro-5-methyl-5,6-dihydro-4H-imidazo[1,5-a][1,4]benzodiazepin-6-one], for which the ED50 in test [1] (setting [3]) is 0.3 mg/kg; in test [1] (setting [4]), 0.5 mg/kg; in test [1] (setting [5]) it was 0.7 mg/kg; in test [1] (setting [6]), 1.6 mg/kg; in test [1] (setting [7]), 2.6 mg/kg; in test [1] (setting [8]), 4.9 mg/kg. Moreover, the ED50 in test [1] (setting [9]) and in test [1] (setting [10]) was above 10 mg/kg throughout. In test [2], the half-maximal inhibitory concentration (IC50) is 59 nM.

In the case of `CCCN(CCC)Cc1cnc(-c2ncn3c2CN(C)C(=O)c2c-3ccc(F)c2Cl)o1` [C, 7-chloro-3-(5-dipropylaminomethyl-oxazol-2-yl)-8-fluoro-5-methyl-5,6-dihydro-4H-imidazo[1,5-a][1,4]benzodiazepin-6-one], the ED50 in test [1] (setting [3]) is 0.3 mg/kg; in test [1] (setting [4]) it was 0.3 mg/kg; in test [1] (setting [5]), 0.5 mg/kg; in test [1] (setting [6]) it was 0.7 mg/kg; in test [1] (setting [7]) it was 1.6 mg/kg; in test [1] (setting [8]), 2 mg/kg. Moreover, the results for the ED50 in test [1] (setting [9]) and in test [1] (setting [10]) were above 10 mg/kg and at least 10 mg/kg, respectively. For the same molecule, the 50% inhibitory concentration (IC50) in test [2] was found to be 7 nM.

Consider `CCCN(CCC)Cc1cnc(-c2ncn3c2[C@@H]2CCN2C(=O)c2sccc2-3)o1` [D, (S)-1-(5-dipropylaminomethyl-oxazol-2-yl)-11,11a-dihydro-8H,10H-azeto[1,2-a]imidazo[5,1-c]thieno[3,2-e][1,4]diazepin-8-one], for which the ED50 in test [1] (setting [3]) was determined as 0.1 mg/kg; in test [1] (setting [4]) it was 0.2 mg/kg; in test [1] (setting [5]) it was 0.4 mg/kg; in test [1] (setting [6]), 0.5 mg/kg; in test [1] (setting [7]), 1.8 mg/kg; in test [1] (setting [8]), 3.6 mg/kg. Moreover, the ED50 in test [1] (setting [9]) and in test [1] (setting [10]) was above 10 mg/kg in each case. The IC50 in test [2] was 7 nM.

With `CCCN(CCC)Cc1csc(-c2ncn3c2[C@@H]2CCN2C(=O)c2c(Cl)cccc2-3)n1` [E, (S)-8-chloro-1-(4-dipropylaminomethyl-thiazol-2-yl)-12,12a-dihydro-9H,11H-azeto[2,1-c]imidazo[1,5-a][1,4]benzodiazepin-9-one], the ED50 was 0.3 mg/kg in test [1] (setting [3]); 0.3 mg/kg in test [1] (setting [4]); 0.3 mg/kg in test [1] (setting [5]); 0.9 mg/kg in test [1] (setting [6]); 1 mg/kg in test [1] (setting [7]); 3.2 mg/kg in test [1] (setting [8]). The ED50 is at least 10 mg/kg in test [1] (setting [9]) and above 10 mg/kg in test [1] (setting [10]). The IC50 in test [2] worked out at 11 nM.

As to `CCCN(CCC)Cc1cnc(-c2ncn3c2CN(C)C(=O)c2ccccc2-3)o1` [F, 3-(5-dipropylaminomethyl-oxazol-2-yl)-5-methyl-5,6-dihydro-4H-imidazo[1,5-a][1,4]benzodiazepin-6-one], the ED50 in test [1] (setting [3]) was 1.7 mg/kg; in test [1] (setting [4]), 3.9 mg/kg; in test [1] (setting [5]) it was 4.7 mg/kg; in test [1] (setting [6]), at least 10 mg/kg; in test [1] (setting [7]), at least 10 mg/kg; in test [1] (setting [8]) it was above 10 mg/kg. Besides, the ED50 in test [1] (setting [9]) and in test [1] (setting [10]) was above 10 mg/kg each time. For the same molecule, the half-inhibitory concentration (IC50) in test [2] amounted to 66 nM.

As for `CCCN(CCC)Cc1cnc(-c2ncn3c2CN(C)C(=O)c2c(Cl)cccc2-3)o1` [G, 7-chloro-3-(5-dipropylaminomethyl-oxazol-2-yl)-5-methyl-5,6-dihydro-4H-imidazo[1,5-a][1,4]benzodiazepin-6-one], the ED50 in test [1] (setting [3]) came out at 1 mg/kg; in test [1] (setting [4]), 1.2 mg/kg; in test [1] (setting [5]), 1.8 mg/kg; in test [1] (setting [6]), 2.1 mg/kg; in test [1] (setting [7]) it was 3 mg/kg; in test [1] (setting [8]) it was 3.4 mg/kg. The results for the ED50 in test [1] (setting [9]) and in test [1] (setting [10]) were 5.6 mg/kg and above 10 mg/kg, respectively. Besides, the IC50 in test [2] was 4 nM.

Take `CCCCN(CCCC)Cc1cnc(-c2ncn3c2CN(C)C(=O)c2cc(F)ccc2-3)o1` [H, 3-(5-dibutylaminomethyl-oxazol-2-yl)-8-fluoro-5-methyl-5,6-dihydro-4H-imidazo[1,5-a][1,4]benzodiazepin-6-one]: the ED50 was 1.1 mg/kg in test [1] (setting [3]); 1.1 mg/kg in test [1] (setting [4]); 1.2 mg/kg in test [1] (setting [5]); 2.1 mg/kg in test [1] (setting [6]); 3.4 mg/kg in test [1] (setting [7]); at least 10 mg/kg in test [1] (setting [8]). In addition, the ED50 in test [1] (setting [9]) and in test [1] (setting [10]) was above 10 mg/kg each time. For the same molecule, the IC50 in test [2] is 35 nM.

Consider `CCCN(CCC)Cc1cnc(-c2ncn3c2CN(C)C(=O)c2sccc2-3)o1` [I, 3-(5-dipropylaminomethyl-oxazol-2-yl)-5-methyl-5,6-dihydro-4H-imidazo[1,5-a]thieno[2,3-f][1,4]diazepin-6-one], for which the ED50 in test [1] (setting [3]) is 1.8 mg/kg; in test [1] (setting [4]) it was 1.7 mg/kg; in test [1] (setting [5]), 3.4 mg/kg; in test [1] (setting [6]), 3.9 mg/kg; in test [1] (setting [7]), 8.7 mg/kg; in test [1] (setting [8]) it was above 10 mg/kg. For the same molecule, the ED50 in test [1] (setting [9]) and in test [1] (setting [10]) was above 10 mg/kg each time. The IC50 in test [2] is 17 nM.

Consider `CCCN(CCC)Cc1csc(-c2ncn3c2CN(C)C(=O)c2c(Cl)cccc2-3)n1` [J, 7-chloro-3-(4-dipropylaminomethyl-thiazol-2-yl)-5-methyl-5,6-dihydro-4H-imidazo[1,5-a][1,4]benzodiazepin-6-one], for which the ED50 is 0.7 mg/kg in test [1] (setting [3]); 0.9 mg/kg in test [1] (setting [4]); 2.3 mg/kg in test [1] (setting [5]); at least 10 mg/kg in test [1] (setting [6]); at least 10 mg/kg in test [1] (setting [7]); above 10 mg/kg in test [1] (setting [8]). Also, the ED50 in test [1] (setting [9]) and in test [1] (setting [10]) was above 10 mg/kg each time. In test [2], the 50% inhibitory concentration (IC50) came to 5.2 nM.

As for `CCCN(CCC)Cc1csc(-c2ncn3c2[C@@H]2CCCN2C(=O)c2c(Cl)cccc2-3)n1` [K, (S)-8-chloro-1-(4-dipropylaminomethyl-thiazol-2-yl)-11,12,13,13a-tetrahydro-9H-imidazo[1,5-a]pyrrolo[2,1-c][1,4]benzodiazepin-9-one], the ED50 is 1.8 mg/kg in test [1] (setting [3]); 1.8 mg/kg in test [1] (setting [4]); 5.6 mg/kg in test [1] (setting [5]); 3.7 mg/kg in test [1] (setting [6]); 5.6 mg/kg in test [1] (setting [7]); at least 10 mg/kg in test [1] (setting [8]). Also, the values for the ED50 in test [1] (setting [9]) and in test [1] (setting [10]) were at least 10 mg/kg and above 10 mg/kg, respectively. The IC50 in test [2] worked out at 15 nM.

Consider `CCCN(CCC)Cc1csc(-c2ncn3c2CN(C)C(=O)c2c-3ccc(F)c2Cl)n1` [L, 7-chloro-3-(4-dipropylaminomethyl-thiazol-2-yl)-8-fluoro-5-methyl-5,6-dihydro-4H-imidazo[1,5-a][1,4]benzodiazepin-6-one], for which the ED50 was 1.1 mg/kg in test [1] (setting [3]); 1.1 mg/kg in test [1] (setting [4]); 1.1 mg/kg in test [1] (setting [5]); 2.8 mg/kg in test [1] (setting [6]); 4.7 mg/kg in test [1] (setting [7]); 5.7 mg/kg in test [1] (setting [8]). Moreover, the ED50 is at least 10 mg/kg in test [1] (setting [9]) and above 10 mg/kg in test [1] (setting [10]). Further, in test [2], the IC50 is 16 nM.

Regarding `CCCN(CCC)Cc1coc(-c2ncn3c2CN(C)C(=O)c2c(Cl)cccc2-3)n1` [M, 7-chloro-3-(4-dipropylaminomethyl-oxazol-2-yl)-5-methyl-5,6-dihydro-4H-imidazo[1,5-a][1,4]benzodiazepin-6-one], the ED50 in test [1] (setting [3]) amounted to 0.4 mg/kg; in test [1] (setting [4]), 1 mg/kg; in test [1] (setting [5]), 1.2 mg/kg; in test [1] (setting [6]) it was 3 mg/kg; in test [1] (setting [7]), 3.7 mg/kg; in test [1] (setting [8]) it was 8.8 mg/kg. The ED50 in test [1] (setting [9]) is at least 10 mg/kg; in test [1] (setting [10]), above 10 mg/kg. Besides, in test [2], the IC50 was determined as 15 nM.
